From ChEMBL document CHEMBL1201862, “PubChem BioAssay data set” (2004) come the findings set out here.

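Step 1: Grow cells in 96-well plates. Step 2: Expose to compound for 48 hours at 5 concentrations. Step 3: Interpolate endpoints linearly; if unreached, use highest concentration. Here, GI50 denotes the concentration required for 50% inhibition of growth.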 Active and inactive are the calls of the source. Rule as the data show it: active = GI50 up to about 1.1 µM and inactive = higher.

Some test systems named below: OVCAR-8; SF-268; SK-MEL-28; T47D; Malme-3M; M14; NCI-H460; MDA-N; UACC-62; K562; OVCAR-3; HCT-116; IGROV-1; SK-MEL-5; OVCAR-5; HOP-62; UACC-257; HOP-92; KM12; ACHN.
Common to all, as to test: NCI-60 cell line screen, 48 h

Regarding `CCC(=O)c1cc(C(=O)C(=S)SC)cc(C(=O)C(=S)SC)c1`, the GI50 in the assay on OVCAR-8 was > 100 µM (inactive); in the assay on SF-268, > 100 µM (inactive); in the assay on SK-MEL-28, > 100 µM (inactive); in the assay on T47D it was > 100 µM (inactive); in the assay with Malme-3M, > 27.3 µM (inactive); in the assay with M14, > 100 µM (inactive). Moreover, the GI50 in the assay with NCI-H460 is > 100 µM (inactive); with MDA-N, > 100 µM (inactive); with UACC-62, > 100 µM (inactive); with K562 it was 41.9 µM (inactive); with OVCAR-3, > 54.2 µM (inactive); with HCT-116, > 100 µM (inactive). The GI50 in the assay on IGROV-1 is > 100 µM (inactive); in the assay on SK-MEL-5, > 82.8 µM (inactive); in the assay on OVCAR-5 it was > 100 µM (inactive); in the assay with HOP-62, > 100 µM (inactive); in the assay on UACC-257 it was > 100 µM (inactive); in the assay with HOP-92, > 59.7 µM (inactive). For the same compound, the GI50 was > 100 µM (inactive) with KM12 and > 87.1 µM (inactive) in the assay on ACHN.

Take `CC[C@]12C=CCN3CCC4(c5cc(/N=N/c6ccc([N+](=O)[O-])cc6)c(OC)cc5N(C)[C@H]4[C@@](O)(C(=O)OC)[C@@H]1OC(C)=O)[C@@H]32` (stereo not given in full): the GI50 is 7.46 µM (inactive) in the assay on OVCAR-8; 16.2 µM (inactive) in the assay on SF-268; 11.8 µM (inactive) in the assay with SK-MEL-28; 13.3 µM (inactive) with T47D; 16.1 µM (inactive) in the assay with Malme-3M; 15.5 µM (inactive) in the assay on M14. Besides, the GI50 was 19.8 µM (inactive) with NCI-H460; 12.9 µM (inactive) with MDA-N; 17.2 µM (inactive) in the assay on UACC-62; 6.32 µM (inactive) in the assay with K562; 4.53 µM (inactive) with OVCAR-3; 10.7 µM (inactive) in the assay on HCT-116. Moreover, the GI50 in the assay on IGROV-1 is 11.9 µM (inactive); with SK-MEL-5, 12.4 µM (inactive); in the assay on OVCAR-5 it was 13 µM (inactive); in the assay on HOP-62, 13.6 µM (inactive); in the assay with UACC-257, 14.7 µM (inactive); in the assay with HOP-92, 2.54 µM (inactive). Also, the GI50 was 14.3 µM (inactive) in the assay on KM12 and 15 µM (inactive) in the assay with ACHN.

Regarding `Cc1cc(N(CCC#N)CCC#N)ccc1C(=N/NC(=O)c1cc(Cl)ccc1O)/N=N/c1cccc([N+](=O)[O-])c1`, the GI50 is 22.6 µM (inactive) in the assay on OVCAR-8; 18.7 µM (inactive) in the assay with SF-268; 28.9 µM (inactive) in the assay on SK-MEL-28; 19.4 µM (inactive) in the assay on T47D; 34 µM (inactive) in the assay with Malme-3M; 30.4 µM (inactive) with M14. The GI50 was 25 µM (inactive) in the assay on NCI-H460; 37 µM (inactive) with MDA-N; 14.1 µM (inactive) in the assay on UACC-62; 22 µM (inactive) with K562; 15.9 µM (inactive) in the assay on OVCAR-3; 22.2 µM (inactive) in the assay on HCT-116. The GI50 with IGROV-1 was 11.3 µM (inactive); in the assay on SK-MEL-5, 18.1 µM (inactive); in the assay with OVCAR-5, 35 µM (inactive); in the assay with HOP-62 it was 24.2 µM (inactive); in the assay with UACC-257 it was 31.2 µM (inactive); in the assay with HOP-92 it was 38.2 µM (inactive). Besides, the GI50 with KM12 was 23.1 µM (inactive); in the assay on ACHN, 35.5 µM (inactive).

Take `CC(=O)Oc1ccc2c(c1)CC[C@@H]1C2[C@@H](O[N+](=O)[O-])C[C@@]2(C)C1CC[C@@H]2O[N+](=O)[O-]` (stereo not given in full): the GI50 was 14.6 µM (inactive) in the assay on OVCAR-8; 13.3 µM (inactive) with SF-268; 14.5 µM (inactive) with SK-MEL-28; 6.97 µM (inactive) in the assay with T47D; 13.7 µM (inactive) in the assay with Malme-3M; 14 µM (inactive) with M14. Further, the GI50 was 12.8 µM (inactive) in the assay on NCI-H460; 14.3 µM (inactive) in the assay on MDA-N; 13.9 µM (inactive) with UACC-62; 6.5 µM (inactive) in the assay with K562; 13.2 µM (inactive) in the assay on OVCAR-3; 10.2 µM (inactive) in the assay with HCT-116. For the same compound, the GI50 was 15.1 µM (inactive) in the assay on IGROV-1; 9.75 µM (inactive) in the assay with SK-MEL-5; 19.4 µM (inactive) with OVCAR-5; 6.82 µM (inactive) in the assay with HOP-62; 11.1 µM (inactive) with UACC-257; 10.1 µM (inactive) in the assay with HOP-92. Further, the GI50 with KM12 was 14.1 µM (inactive); in the assay with ACHN it was 8.69 µM (inactive).

With `O=[N+]([O-])c1ccc2c(c1)C1=NN(c3ccccc3)C(c3ccccc3Br)C1CCC2` (stereo not given), the GI50 in the assay with OVCAR-8 is 22.2 µM (inactive); in the assay on SF-268, 21.9 µM (inactive); in the assay with SK-MEL-28, 21.1 µM (inactive); in the assay on T47D, 10.2 µM (inactive); in the assay on Malme-3M it was 24.8 µM (inactive); with M14, 23.2 µM (inactive). For the same compound, the GI50 was 22.6 µM (inactive) in the assay with NCI-H460; 17.3 µM (inactive) in the assay on MDA-N; 9.62 µM (inactive) with UACC-62; 4.53 µM (inactive) with K562; 16.2 µM (inactive) with OVCAR-3; 12.4 µM (inactive) in the assay on HCT-116. Moreover, the GI50 in the assay on IGROV-1 was 27.5 µM (inactive); in the assay with SK-MEL-5, 15.4 µM (inactive); in the assay with OVCAR-5 it was > 50 µM (inactive); in the assay with HOP-62, 43.6 µM (inactive); in the assay with UACC-257, 19 µM (inactive); in the assay on HOP-92, 14.6 µM (inactive). Further, the GI50 was 16.9 µM (inactive) in the assay with KM12 and 22.8 µM (inactive) in the assay with ACHN.

For the compound `CCCCN(Cc1ccccc1)/C(=N/C#N)N(Cc1ccccc1)Cc1ccccc1`, the GI50 was 27.9 µM (inactive) with OVCAR-8; 18.8 µM (inactive) in the assay on SF-268; 29 µM (inactive) in the assay on SK-MEL-28; 15.8 µM (inactive) with T47D; 8.59 µM (inactive) with Malme-3M; 12.8 µM (inactive) in the assay with M14. The GI50 in the assay with NCI-H460 is 9.84 µM (inactive); in the assay on MDA-N it was 14.2 µM (inactive); with UACC-62 it was 16.1 µM (inactive); with K562 it was 14 µM (inactive); with OVCAR-3 it was 4.3 µM (inactive); with HCT-116 it was 5.16 µM (inactive). For the same compound, the GI50 was 17.6 µM (inactive) in the assay with IGROV-1; 14.8 µM (inactive) in the assay with SK-MEL-5; 27 µM (inactive) in the assay with OVCAR-5; 26.1 µM (inactive) in the assay on HOP-62; 10.6 µM (inactive) in the assay on UACC-257; 11.4 µM (inactive) in the assay on HOP-92. For the same compound, the GI50 with KM12 is 10.2 µM (inactive); in the assay on ACHN it was 12.1 µM (inactive).

Turning to `COc1ccccc1NC(=S)N/N=C(/c1ccccc1)c1ccccn1`, the GI50 is 0.0627 µM (active) with OVCAR-8; 0.144 µM (active) in the assay on SF-268; 1.39 µM (inactive) in the assay with SK-MEL-28; < 0.0426 µM (active) in the assay on T47D; 0.167 µM (active) with Malme-3M; < 0.0249 µM (active) in the assay with M14. Also, the GI50 is 0.158 µM (active) in the assay on NCI-H460; 0.229 µM (active) with MDA-N; 0.273 µM (active) in the assay with UACC-62; < 0.0128 µM (active) with K562; < 0.0143 µM (active) with OVCAR-3; < 0.0147 µM (active) in the assay with HCT-116. Moreover, the GI50 with IGROV-1 is 0.0225 µM (active); in the assay with SK-MEL-5, 0.0904 µM (active); with OVCAR-5 it was 0.0635 µM (active); in the assay with HOP-62, 0.251 µM (active); with UACC-257 it was < 0.0167 µM (active); in the assay on HOP-92 it was 0.522 µM (active). The values for the GI50 with KM12 and in the assay on ACHN were 0.151 µM (active) and 0.0257 µM (active), respectively.

Consider `CN(C)c1ccc(/C=C(\NC(=O)c2ccccc2)C2=NC(CCC(=O)O)C(=O)O2)cc1` (stereo not given), for which the GI50 is > 41.4 µM (inactive) in the assay on OVCAR-8; > 50 µM (inactive) in the assay with SF-268; > 50 µM (inactive) with SK-MEL-28; > 50 µM (inactive) in the assay with T47D; > 31.3 µM (inactive) in the assay on Malme-3M; > 50 µM (inactive) in the assay with M14. In addition, the GI50 with NCI-H460, in the assay with MDA-N, in the assay with UACC-62, with K562, in the assay with OVCAR-3 and with HCT-116 was > 50 µM (inactive) in each case. The GI50 was > 50 µM (inactive) in the assay on IGROV-1; > 48.3 µM (inactive) with SK-MEL-5; > 50 µM (inactive) with OVCAR-5; 15.9 µM (inactive) in the assay with HOP-62; > 50 µM (inactive) in the assay on UACC-257; > 50 µM (inactive) in the assay on HOP-92. Also, the GI50 is 42.8 µM (inactive) with KM12 and > 50 µM (inactive) in the assay with ACHN.

For the compound `CC(=O)OCC1=C(C)C[C@H]([C@@H](COC(C)=O)C2CCC3C4C[C@H]5O[C@]56CC=CC(=O)[C@]6(C)C4CC[C@@]32C)OC1=O` (stereo not given in full), the GI50 in the assay on OVCAR-8 is 0.15 µM (active); in the assay on SF-268 it was 0.379 µM (active); in the assay with SK-MEL-28, 0.3 µM (active); with T47D, 0.353 µM (active); in the assay with Malme-3M, 0.274 µM (active); in the assay on M14, 0.188 µM (active). Moreover, the GI50 in the assay with NCI-H460 was 0.929 µM (active); in the assay with MDA-N, 0.175 µM (active); in the assay with UACC-62, 0.258 µM (active); with K562, 0.0106 µM (active); in the assay with OVCAR-3 it was 0.109 µM (active); with HCT-116, 0.097 µM (active). The GI50 was 0.184 µM (active) in the assay on IGROV-1; 0.269 µM (active) in the assay with SK-MEL-5; 1.23 µM (inactive) with OVCAR-5; 0.634 µM (active) in the assay on HOP-62; 0.302 µM (active) with UACC-257; 0.352 µM (active) in the assay with HOP-92. In addition, the GI50 is 0.138 µM (active) in the assay with KM12 and 0.302 µM (active) in the assay on ACHN.

With `C[N+](C)(N)CCC[N+](C)(C)N`, the GI50 with OVCAR-8, with SF-268, in the assay on SK-MEL-28, in the assay on T47D, in the assay on Malme-3M and with M14 was > 100 µM (inactive) in each case. Further, the GI50 with NCI-H460, in the assay on MDA-N, in the assay with UACC-62, with K562, with OVCAR-3 and in the assay with HCT-116 was > 100 µM (inactive) in each case. The GI50 with IGROV-1, in the assay on SK-MEL-5, in the assay on OVCAR-5, in the assay with HOP-62, in the assay on UACC-257 and with HOP-92 was > 100 µM (inactive) each time. Besides, the GI50 with KM12 and in the assay on ACHN was > 100 µM (inactive) in each case.
